Measurements reported in patent US5484940A, “Substituted 3-indolyl-5-pyrazolone compounds” (priority 1994, dated 1996).

Experiments:
Ultraviolet absorption = format: physicochemical; details: 0.1 mg/mL in methanol, 1 cm quartz cuvette
Protocol: The ultraviolet (UV) absorption properties of two representative substituted 3-indolyl-5-pyrazolones were evaluated and compared to indomethacin [1-(4-chlorobenzoyl)-5-methoxy-2-methyl-^1 H-indole-3-acetic acid], a compound known to absorb UV light (See page 4855 of the Merck Index, 10th Edition, Windholz, et al. Editor (1983)). Specifically, 0.1 mg/mL of 3-indolyl-5-pyrazolone (Ex. 9 or 33) or indomethacin in methanol was added to a quartz cuvette (1 cm) and the UV absorption of this solution was then measured at a wavelength of from 200 nm to 800 nm (Examples 9 and 33) and from 190 nm to 800 nm.

rat cortical neurons = test: Inhibition of toxicity of β-amyloid peptide to rat neuronal cells (alamarBlue); format: cell-based; details: 10 to 20 μM β-amyloid peptide, 2-3 days; on average where more than one duplicate experiment; compound concentration not stated
Protocol: (§1) The purpose of this test is to determine the effect of 3-indolyl-5-pyrazolone compounds on the toxicity of β-amyloid peptide to neuronal cells.
Primary rat cortical cultures were established from 18 day rat fetuses. Cortical tissue was dissociated by incubation in a trypsin/EDTA solution (0.05% trypsin+0.53 mM EDTA in HBSS; GIBCO Laboratories, Grand Island, N.Y., USA) for 20 minutes at 37° C. The trypsin was then inactivated by resuspending the cells in serum-containing medium (DMEM/FBS): Dulbecco's Modified Eagles' Medium (DMEM) containing 4.5 g/L glucose, 1 mM sodium pyruvate, 1 mM glutamine, 100 Units/mL penicillin, 100 μg/mL streptomycin, and supplemented with 10% heat-inactivated fetal bovine serum (GIBCO Laboratories, Grand Island, N.Y., USA). Cells were then pelleted by centrifugation and resuspended in a chemically-defined medium (DMEM/B27: DMEM containing B27 supplement; GIBCO Laboratories, Grand Island, N.Y., USA) in place of FBS. Polyethyleneimine (PEI; Sigma Chemical Company, St. Louis, Mo., USA)-coated 6.4 mm (96-well) dishes were timed once with DMEM/FBS, and then seeded at 0.75 to 1.25×10^5 cells per well in 0.1 mL DMEM/B27. Cultures were maintained in a H2 O-saturated incubator with an atmosphere of 90% air/10% CO2 at 37° C. Cell viability was visually assessed by phase contrast microscopy and quantified by measuring the reduction of alamarBlue™ (Alamar biosciences, Inc., Sacramento, Calif., USA) as described below. Serum replacement with B27 supplement yields nearly pure neuronal cultures as judged by immunocytochemistry for glial fibrillary acidic protein and neuron-specific enolase (Brewer, et al.^20)
(§2) β-amyloid peptide stock solutions were prepared as 1 mM stocks in sterile, doubly distilled water immediately prior to addition to cultures. Rat cortical neurons were exposed to β-amyloid peptide by removing the culture medium and replacing it with DMEM/N2 (GIBCO Laboratories,Grand Island, N.Y., USA) containing 10 to 20 μM β-amyloid peptide. Human cortical neurons were exposed to test compound plus β-amyloid peptide by removing the culture medium and replacing it with MEM containing 50 μM β-amyloid peptide. Cultures were maintained for 2-3 days before neuronal survival was quantified using alamarBlue™.
(§3) The alamarBlue™ assay incorporates a fluorometric/colorimetric metabolic indicator (Alamar Biosciences, Inc. Sacramento, Calif., USA). Viable cells convert alamarBlue™ from an oxidized (non-fluorescent, blue) form to a reduced (fluorescent, red) form. Assays were preformed by replacing the culture media with a 10% alamarBlue™ solution in DMEM (rat cortical cultures) or MEM (human cortical cultures).

[1] = test system: β-amyloid peptide production; test: Cellular screen for inhibitors of β-amyloid production (ELISA, 293 751 SWE cells); format: cell-based, human; details: 2 h pretreatment + 2 h, normalized for cytotoxicity (MTT), concentration not given
Protocol: (§4) This screening assay employed cells (K293=human kidney cell line) which were stably transfected with the gene for amyloid precursor protein 751 (APP751) containing the double mutation Lys651 Met652 to Asn651 Leu652 (APP751 numbering) in the manner described in International Patent Application Publication No. 94/10569^1 and Citron et al.^16. This mutation is commonly called the Swedish mutation and the cells, designated as "293 751 SWE", were plated in Coming 96-well plates at 1.5-2.5×10^4 cells per well in Dulbecco's minimal essential media plus 10% fetal bovine serum. Cell number is important in order to achieve β-amyloid ELISA results within the linear range of the assay (~0.2 to 2.5 ng per mL).
Following overnight incubation at 37° C. in an incubator equilibrated with 10% carbon dioxide, media were removed and replaced with 200 μL of a substituted 3-indolyl-5-pyrazolone (drug) containing media per well for a two hour pretreatment period and cells were incubated as above.
At the end of the pretreatment period, the media were again removed and replaced with fresh drag containing media as above and cells were incubated for an additional two hours. After treatment, plates were centrifuged in a Beckman GPR at 1200 rpm for five minutes at room temperature to pellet cellular debris from the conditioned media. From each well, 100 μL of conditioned media or appropriate dilutions thereof were transferred into an ELISA plate precoated with antibody 266 against amino acids 13-28 of β-amyloid peptide as described in International Patent Application Publication No. 94/10569^1 and stored at 4° C. overnight. An ELISA assay employing labelled antibody 6C6 against amino acids 1-16 of β-amyloid peptide was run the next day to measure the amount of β-amyloid peptide produced.
The results of the β-amyloid peptide ELISA were fit to a standard curve and expressed as ng/mL β-amyloid peptide. […] All results are the mean and standard deviation of at least six replicate assays.

human cortical neurons = test: Inhibition of toxicity of β-amyloid peptide to human neuronal cells (alamarBlue); format: cell-based; details: 50 μM β-amyloid peptide, 2-3 days; on average where more than one duplicate experiment; compound concentration not stated
Protocol: as §1
Primary Human Cortical Cell Culture
Primary human cortical cultures were prepared using a modification of the procedure described by Seubert, et al.^21 Following filtration through Nitex nylon screens, cortical tissue was resuspended in a trypsin/EDTA solution (0.05% trypsin+0.53 mM EDTA in HBSS; GIBCO Laboratories, Grand Island, N.Y., USA) and kept at 37° C. for 20 minutes. The trypsin was then inactivated by resuspending the cells in serum-containing medium (MEM/FBS: Modified Eagles' Medium (MEM) containing 1% glucose, 1 mM sodium pyruvate, 1 mM glutamine, and supplemented with 10% fetal bovine serum (GIBCO). Cells were then pelleted by centrifugation and resuspended in a chemically-defined medium (MEM/B27: MEM containing B27 supplement in place of FBS; GIBCO). Polyethyleneimine (PEI; Sigma Chemical Company, St. Louis, Mo., USA)-coated 6.4 mm (96-well) dishes were rinsed once with MEM/FBS, and then seeded at 0.75 to 1.25×10^5 cells per well in 0.1 mL MEM/B27. Cultures were maintained in a H2 O-saturated incubator with an atmosphere of 95% air/5% CO 2 at 37° C. The culture medium was exchanged twice weekly. Cell viability was visually assessed by phase contrast microscopy and quantified by measuring the reduction of alamarBlue™ (Alamar Biosciences, Inc., Sacramento, Calif., USA).
as §2, §3

293 751 SWE cells = test: Cytotoxicity (MTT) in 293 751 SWE cells; format: cell-based, human; details: concentration not given
Protocol: as §4
Cytotoxic effects of the compounds were measured by a modification of the method of Hansen, et al.^17. To the cells remaining in the tissue culture plate was added 25 μL of a 3,(4,5-dimethylthiazol-2-yl)2,5-diphenyltetrazolium bromide (MTT) stock solution (5 mg/mL) to a final concentration of 1 mg/mL. Cells were incubated at 37° C. for one hour, and cellular activity was stopped by the addition of an equal volume of MTT lysis buffer (20% w/v sodium dodecylsulfate in 50% dimethylformamide, pH 4.7). Complete extraction was achieved by overnight shaking at room temperature. The difference in the OD562nm and the OD650nm was measured in a Molecular Device's UVmax microplate reader as an indicator of the cellular viability.

COc1ccc2c(c1)c(CC(=O)O)c(C)n2C(=O)c1ccc(Cl)cc1 [indomethacin, 1-(4-chlorobenzoyl)-5-methoxy-2-methyl-^1 H-indole-3-acetic acid, reference compound]
Abs (at λmax) (Ultraviolet absorption): 2.3996 | E = Extinction coefficient (Ultraviolet absorption): 23.99 AU/mg/mL/cm | λmax (Ultraviolet absorption): 246 nm | λother (shoulder) (Ultraviolet absorption): 318 nm

COc1ccc2c(c1)c(CC1=NN(c3ccc(Cl)c(Cl)c3)C(=O)C1)c(C)n2C(=O)c1ccc(Cl)cc1 [Example 33, 3-[1-(4-chlorobenzoyl)-5-methoxy-2-methyl-3-indolylmethyl]-1-(3,4-dichlorophenyl)-5-pyrazolone]
inhibition of the toxicity of β-amyloid peptide to rat neuronal cells (rat cortical neurons): at least 10% | reduction of β-amyloid peptide production as compared to control [1]: at least 20% | inhibition of the toxicity of β-amyloid peptide to human neuronal cells (human cortical neurons): at least 25% | cytotoxic effect on the 293 751 SWE cells (293 751 SWE cells): did not have a significant cytotoxic effect | Abs (at λmax) (Ultraviolet absorption): 2.3458 | E = Extinction coefficient (Ultraviolet absorption): 23.46 AU/mg/mL/cm | λmax (Ultraviolet absorption): 254 nm | λother (shoulder) (Ultraviolet absorption): 318 nm

COc1ccc2c(c1)c(CC1=NN(c3ccccc3)C(=O)C1)c(C)n2C(=O)c1ccc(Cl)cc1 [Example 8, 3-[1-(4-chlorobenzoyl)-5-methoxy-2-methyl-3-indolylmethyl]-1-phenyl-5-pyrazolone]
inhibition of the toxicity of β-amyloid peptide to rat neuronal cells (rat cortical neurons): < 10% | reduction of β-amyloid peptide production as compared to control [1]: at least 20% | inhibition of the toxicity of β-amyloid peptide to human neuronal cells (human cortical neurons): at least 25% | cytotoxic effect on the 293 751 SWE cells (293 751 SWE cells): did not have a significant cytotoxic effect

COc1ccc2c(c1)c(CC1=NN(c3cccc(Cl)c3)C(=O)C1)c(C)n2C(=O)c1ccc(Cl)cc1 [Example 26, 3-[1-(4-chlorobenzoyl)-5-methoxy-2-methyl-3-indolylmethyl]-1-(3-chlorophenyl)-5-pyrazolone]
inhibition of the toxicity of β-amyloid peptide to rat neuronal cells (rat cortical neurons): at least 10% | reduction of β-amyloid peptide production as compared to control [1]: at least 20% | inhibition of the toxicity of β-amyloid peptide to human neuronal cells (human cortical neurons): at least 25% | cytotoxic effect on the 293 751 SWE cells (293 751 SWE cells): did not have a significant cytotoxic effect

COc1ccc2c(c1)c(CC1=NN(c3cc(Cl)cc(Cl)c3)C(=O)C1)c(C)n2C(=O)c1ccc(Cl)cc1 [Example 27, 3-[1-(4-chlorobenzoyl)-5-methoxy-2-methyl-3-indolylmethyl]-1-(3,5-dichlorophenyl)-5-pyrazolone]
inhibition of the toxicity of β-amyloid peptide to rat neuronal cells (rat cortical neurons): at least 10% | reduction of β-amyloid peptide production as compared to control [1]: at least 20% | inhibition of the toxicity of β-amyloid peptide to human neuronal cells (human cortical neurons): at least 25% | cytotoxic effect on the 293 751 SWE cells (293 751 SWE cells): did not have a significant cytotoxic effect

COc1ccc(N2N=C(Cc3c(C)n(C(=O)c4ccc(Cl)cc4)c4ccc(OC)cc34)CC2=O)cc1 [Example 23, 3-[1-(4-chlorobenzoyl)-5-methoxy-2-methyl-3-indolylmethyl]-1-(4-methoxyphenyl)-5-pyrazolone]
inhibition of the toxicity of β-amyloid peptide to rat neuronal cells (rat cortical neurons): < 10% | reduction of β-amyloid peptide production as compared to control [1]: at least 20% | inhibition of the toxicity of β-amyloid peptide to human neuronal cells (human cortical neurons): at least 25% | cytotoxic effect on the 293 751 SWE cells (293 751 SWE cells): did not have a significant cytotoxic effect

COc1cccc(N2N=C(Cc3c(C)n(C(=O)c4ccc(Cl)cc4)c4ccc(OC)cc34)CC2=O)c1 [Example 24, 3-[1-(4-chlorobenzoyl)-5-methoxy-2-methyl-3-indolylmethyl]-1-(3-methoxyphenyl)-5-pyrazolone]
inhibition of the toxicity of β-amyloid peptide to rat neuronal cells (rat cortical neurons): at least 10% | reduction of β-amyloid peptide production as compared to control [1]: at least 20% | inhibition of the toxicity of β-amyloid peptide to human neuronal cells (human cortical neurons): at least 25% | cytotoxic effect on the 293 751 SWE cells (293 751 SWE cells): did not have a significant cytotoxic effect
